The source of these data is a melting point compilation (Tetko et al.; mined from patent text by program, amines drawn as free bases though some values may be those of a salt).

Usually melting point stands for the temperature of the solid-liquid transition.

On to `COc1ccnc(CS(=O)c2nc3cc4c(cc3[nH]2)OC(F)(F)C(F)(Cl)O4)c1` (stereo not drawn), for which the melting point is 179 to 181 °C.

Compound `Cc1c(Cc2cccc(C(F)(F)F)c2)sc2c(-c3cc(F)cc(C(=O)NCC(N)=O)c3)cccc12` registered a melting point of 46 to 47 °C.

`C#Cc1ncn2c(C(F)(F)F)cc(-c3ccc(C(F)(F)F)cc3)nc12`: the melting point is 163 °C.

For `COc1ccc(S(=O)(=O)N(Cc2cccnc2)C(C(N)=O)C(C)C)cc1` (stereo not drawn), the melting point was 45 to 53 °C.

The compound `COc1ccc(CSc2nnc(-c3ccc4c(c3)CCO4)o2)cc1` had a melting point of 121 to 124 °C.

In the case of `Cn1nc(-c2ccc(C(F)(F)F)cc2)cc1C(=O)O`, the melting point was 230 to 232 °C.

`CC(C)(C)OC(=O)c1c(Cl)cc(N2C(=O)N3CCCC3(Cc3ccc(Br)cc3)C2=O)cc1Cl` (stereo not drawn) came in with a melting point of 109 to 110 °C.

`ClCn1cnc(Cl)c1Cl` registered a melting point of 40 to 41 °C.

Consider `COCC1CN(c2cccnc2)C(=O)O1` (racemic), for which the melting point is 65 to 66 °C.

`COc1cc(-c2nn(C)c(C(N)=O)c2C)c(F)cc1Cl` gave a melting point of 224 to 226 °C.

For the compound `Nc1nccc(OCC(F)(F)F)c1N`, the melting point lay within 126 to 128 °C.

`COc1cc2c(cc1OC)-c1cc(N(c3c(C)cc(C)cc3C)C(C)C)nc(=O)n1CC2` returned a melting point of 182 to 183 °C.

`CCCc1ccc2c(c1)C=Cc1cc(C)ccc1C2c1cn(-c2ccnc(N(C)CC(=O)O)n2)c(=O)[nH]c1=S` (stereo not drawn): the melting point lay in the range of 145 to 150 °C.

Take `CCOC(=O)c1csc(C2OC(CO)C(O)C2O)n1` (stereo not drawn): the melting point was 62 to 64 °C.

On to `O=C(Nc1ccccc1OC(=O)c1ccccc1)c1cc(Cl)c(OC(=O)c2ccccc2)c(Cl)c1`, for which the melting point was in the range of 157 to 160 °C.

For `CCCSc1ccc(C(=O)C(=O)O)[nH]1`, the melting point stood at 87 °C.

For the compound `Sc1ccc2c(c1)Sc1ccc(Cl)cc1N2`, the melting point lay within 230 to 232 °C.

The compound `Clc1ccc(-c2csc(-c3cnccc3Cl)n2)cc1` showed a melting point of 149 to 150 °C.

On to `c1ccc(-c2cc(N3CCCCC3)c(-c3ccccc3)o2)cc1`, for which the melting point amounted to 103 °C.

On to `COc1cc(CBr)ccc1OC(=O)c1ccccc1`, for which the melting point was 86 to 88 °C.

Take `COc1ccc(C(=O)OCc2ccccc2)cc1NC(=S)Nc1cc(Cl)cc(Cl)c1`: the melting point fell in the range of 144 to 145 °C.

Compound `O=C(Nc1ccccc1C(=O)O)c1cccc(OC(F)F)c1` returned a melting point of 186 to 191 °C.

The compound `CCCC1c2c(ccc(C(C)=O)c2O)OC1COc1ccc(CC(=O)O)cc1` (stereo not drawn) yielded a melting point of 104 to 106 °C.

`COc1cnc(Cl)nc1NS(=O)(=O)c1cccc(Cl)c1Cl` showed a melting point of 244 to 245 °C.

The compound `C=CCc1cc2cc(CC=C(C)C)c(=O)[nH]c2c(CC=C)c1O` registered a melting point of 241 to 244 °C.

For `Cn1cc(-c2cccc(Cl)c2)c(=O)o1`, the melting point came out at 131 °C.

For `COC(=O)c1cnc2cccc(OC)c2c1`, the melting point came out at 102 °C.

The compound `O=C(NCCCOc1cc(CN2CCCCC2)ccn1)c1cn[nH]c1` displayed a melting point of 117 to 119 °C.

The compound `CC1(C)Oc2ccc(S(=O)(=O)C(F)(F)F)cc2[C@@H](N2Cc3c(cccc3[N+](=O)[O-])C2=O)[C@@H]1O` (relative stereo) returned a melting point of 292 to 295 °C.

As for `COc1ccc2cc(C(=O)C34CC5CC(CC(C5)C3)C4)oc2c1`, the melting point fell in the range of 99 to 101 °C.

For the compound `COC(=O)c1ccc2cc(CCC=O)oc2c1`, the melting point was in the range of 57 to 58 °C.

In the case of `CCOC(OCC)P(=O)(O)CCCN(C)Cc1ccc(Cl)cc1`, the melting point amounted to 170 °C.

Compound `NC(=O)C[C@H](NC(=O)OCc1ccccc1)C(=O)N[C@@H](Cc1ccccc1)[C@H](O)C(=O)O` displayed a melting point of 225 to 227 °C.

Regarding `CCN1Cc2ccc(Cl)cc2-c2c(C(=O)N3CCOCC3)cc(-c3ccccc3)c(=O)n21`, the melting point fell in the range of 288 to 289 °C.

`C=CCC1C(=O)N(Cc2ccccc2)c2ccccc2NC1C` (stereo not drawn) returned a melting point of 81 to 83 °C.

Regarding `CC1(C)Cc2cc(S(=O)(=O)Cl)ccc2O1`, the melting point was in the range of 75 to 77 °C.

Compound `Cc1nc(-n2ccc3c(OCc4ccccc4)cccc3c2=O)sc1C(=O)NCc1ccccc1` registered a melting point of 225 to 226 °C.

Take `COc1ccc(-c2cc(=O)[nH]cn2)cc1OC`: the melting point lay within 248 to 249 °C.

The compound `Cc1ccc(C(=O)c2cc(-c3ccc(Cl)cc3)c(N3CCOCC3)s2)cc1` came in with a melting point of 190 °C.

`COC(=O)Cc1ccc(OCCNC(=O)C2Cc3ccccc3N2S(=O)(=O)c2ccc(-c3cc(C(F)(F)F)ccc3F)cc2)cc1` (stereo not drawn) showed a melting point of 52 to 55 °C.

`CCCCCCN1CC(C(=O)OC)N(S(=O)(=O)c2ccc(-c3ccc(Br)cc3)cc2)CC1=O` (stereo not drawn) registered a melting point of 127 to 129 °C.

In the case of `CCCCc1cc2cc(C(=O)NOCc3ccccc3)ccn2c1C(=O)c1ccc(OCCCN(CCCC)CCCC)cc1`, the melting point lay within 118 to 119 °C.

Compound `CON=C[C@H]1NC(=O)[C@H]1NC(=O)OCc1ccccc1` displayed a melting point of 170 to 171 °C.

`CC(=O)N(C)c1cccc(-c2ccnc3c(Cl)cnn23)c1` came in with a melting point of 163 to 165 °C.

Compound `COC(=O)c1ccc(OC(=O)c2ccc(OC)c(C34CC5CC(CC(C5)C3)C4)c2)cc1O` returned a melting point of 125 to 127 °C.

`O=C1CCC(c2ccccc2)(c2ccccc2)C2CN(C(Cc3ccccc3)=NCc3cccc(F)c3)CC12` (stereo not drawn) registered a melting point of 156 °C.

In turn, `Nc1ccc(CC(NC(=O)CCCCCCCCCCCNC(=O)C(c2ccccc2)c2ccccc2)c2ccccc2)cc1` (stereo not drawn) returned a melting point of 107 to 114 °C.

As to `CCCn1cnc2c1c(=O)n(CCCC(C)(O)C#CCN1CCN(C)CC1)c(=O)n2C` (stereo not drawn), the melting point came to 168 °C.

As for `COc1cccc(C(CC(=O)O)SC)c1` (stereo not drawn), the melting point fell in the range of 61 to 63 °C.

For the compound `Cn1cnc(N2CCc3ccccc3CC2)c(C#N)c1=O`, the melting point fell in the range of 197 to 203 °C.

Compound `COc1cc2c(cc1OC(C)C)-c1cc3c(n1CC2)C(=O)N(C(C)(C)C)CCOC3` registered a melting point of 125 to 127 °C.

As to `CCCc1cc(Cl)c2oc(-c3ccccc3)c(C)c2c1O`, the melting point lay within 102 to 104 °C.

As for `COc1cc2c(cc1Cl)C(C)(C)C(CC=O)C2=O` (racemic), the melting point lay in the range of 102 to 103 °C.

The compound `CC1=C(O)C(=O)C(C)(CO)O1` (stereo not drawn) gave a melting point of 124 to 125 °C.

For `COc1ccc(S(=O)(=O)N(CC(N)=O)c2ccc(F)cc2C(O)c2ccccc2Cl)cc1OC` (stereo not drawn), the melting point amounted to 232 °C.

Take `COC1(c2ccc(Sc3ccc4ccccc4c3)s2)CCOCC1`: the melting point is 70 °C.

Compound `CC(C)c1cc(-c2c3ccccc3c(Br)c3sc4ccccc4c23)cc(C(C)C)c1O[C@H](C)C(=O)O` had a melting point of 214 to 215 °C.

In the case of `CCOC(=O)Cc1cc2c(N)cccc2cn1`, the melting point is 90 °C.

`CC(C)(OCc1nn(Cc2ccccc2)c2ccccc12)C(=O)NO` yielded a melting point of 115 to 116 °C.

Compound `CC(=C(c1ccc(F)cc1)c1ccc(F)cc1)c1nnnn1C` showed a melting point of 146 to 147 °C.

As to `CNC(=C[N+](=O)[O-])NCCSCc1cc2ccc(CN(C)C)cc2o1`, the melting point was 113 to 114 °C.

Regarding `COC(=O)Cc1ccc2c(c1)N(C)Cc1ccccc1C2=O`, the melting point fell in the range of 88.4 to 90.5 °C.

On to `CCOc1nn(-c2ccccn2)cc1CCCOc1ccc(CCC(=O)O)cc1OC`, for which the melting point fell in the range of 92 to 93 °C.
